Measurements taken from EP0170611A1, “Process for protecting keratinic material against deterioration by keratin devouring insects” (priority 1984, dated 1986).

Assays:
[1] = test system: Kleidermotte Tineola bisselliella Hum.; experiment: Moth-proofing test (feeding protection, SNV 195901) on wool treated in the exhaust bath, Example 4; format: in vivo; conditions: 15 larvae, 14 days, 28°C, 65 % r.h.
Experimental: (§1) Von den zu prüfenden Verbindungen Nr. 101, 102, 201, 203, 205, 301 und 302 werden Stammlösungen durch Auflösung von jeweils 50 mg der Wirksubstanz in 25 ml Aethylenglykolmonoäthyläther bereitet.
(§2) 3 g schwere, gut vorgenetzte Wollgewebstücke werden in eine 30°C warme wässrige Flotte eingebracht, die folgende Bestandteile enthält: • x ppm, bezogen auf das Wollgewicht, der jeweils zu prüfenden Verbindung (eine entsprechende Menge der oben beschriebenen Stammlösung wird der Flotte zugegeben). • 1 X, bezogen auf das Wollgewicht, 80%-ige Essigsäure. • 4 X, bezogen auf das Wollgewicht, Ammoniumsulfat. • 0,5 g/1 Flotte eines Netz- und Dispergiermittels.
(§3) Die Temperatur der Flotte wird innerhalb 20 Minuten auf 98°C gesteigert und 60 Minuten bei dieser Temperatur belassen. Nach dem Abkühlen werden die Muster einzeln mit Wasser gespült und bei Raumtemperatur getrocknet.
(§4) Die mit den zu prüfenden Verbindungen ausgerüsteten trockenen Wollmuster werden der Mottenechtheitsprüfung (Frassschutz gegen die Kleidermotte Tineola bisselliella Hum.) sowie der Echtheitsprüfung gegen Larven des Pelzkäfers (Attagenus piceus Oliv.) und Teppichkäfers (Anthrenus flavipes var. seminiveus) gemäss der Vorschrift des Schweizer Normenverbandes SNV 195901 unterworfen.
(§5) Es werden jeweils Larven von Tineola und Larven von Anthrenus und 6 bis 7 Wochen alte Larven von Attagenus zur Prüfung verwendet.
(§6) Aus dem behandelten Wollflanellmuster werden Stücke gleicher Grösse ausgeschnitten und 14 Tage lang bei konstanter Temperatur (28°C) und konstanter relativer Luftfeuchtigkeit (65 %) dem Angriff (Frass) von je 15 Larven des entsprechenden Schädlings ausgesetzt. Die Beurteilung für alle 3 Schädlinge erfolgt nach dem Gewichtsverlust des Wollmusters.
(§7) .Aus der nachfolgenden Tabelle 1 ist für die geprüften Verbindungen die jeweilige Einsatzkonzentration (in ppm, bezogen auf das Wollgewicht) und der durch den Schädlingsfrass verursachte Gewichtsverlust (in mg) zu entnehmen: […]

[2] = test system: Larven des Pelzkäfers (Attagenus piceus Oliv.); experiment: Fastness test against fur beetle larvae (SNV 195901) on wool treated in the exhaust bath, Example 4; format: in vivo; conditions: 15 larvae, 14 days, 28°C, 65 % r.h.
Experimental: as §1, §2, §3, §4, §5, §6, §7

[3] = test system: Larven des Teppichkäfers (Anthrenus flavipes var. seminiveus); experiment: Fastness test against carpet beetle larvae (SNV 195901) on wool treated in the exhaust bath, Example 4; format: in vivo; conditions: 15 larvae, 14 days, 28°C, 65 % r.h.
Experimental: as §1, §2, §3, §4, §5, §6, §7

[4] = test system: Kleidermotte Tineola bisselliella Hum.; experiment: Moth-proofing test (SNV 195901) on wool treated by pad (Foulard) application, Example 5; format: in vivo; conditions: 15 larvae, 14 days, 28°C, 65 % r.h.
Description: as §4, §5, §6
(§8) 12,5 ml der jeweiligen, die zu prüfenden Verbindungen Nr. 101, 102, 201, 203, 205, 301 und 302 enthaltenden Stammlösung gemäss Beispiel 4 werden mit Aethylenglykolmonoäthyläther, der 1 g/1 eines Netz- und Dispergiermittels enthält, verdünnt. Die'Verdünnung erfolgt in der Weise, dass in der erhaltenen Foulardflotte die Konzentration der jeweils zu prüfenden Verbindung so eingestellt ist, dass auf dem Wollgewebe nach dem foulardieren x ppm des jeweiligen Wirkstoffes vorhanden sind (siehe Tabelle 2). Jeweils 3 ml der erhaltenen Lösung werden in eine Kristallisierschale gegeben. Darin wird eine geköderte Rondelle aus Wollgewebe mit Hilfe einer Pinzette ca. 3 Sekunden lang benetzt. Die feuchten Rondellen werden dann zwischen 2 Aluminiumfolien foulardiert, und zwar derart, dass die abgequetschten Rondellen je 100 X, bezogen auf ihr Gewicht, an Flotte aufgenommen haben. Die feuchten Rondellen werden an der Luft getrocknet und den gleichen biologischen Prüfungen unterworfen, die in Beispiel 4 beschrieben sind. Die Ergebnisse sind in der nachfolgenden Tabelle 2 zusammengefassst: […]

[5] = test system: Larven des Pelzkäfers (Attagenus piceus Oliv.); experiment: Fastness test against fur beetle larvae (SNV 195901) on wool treated by pad (Foulard) application, Example 5; format: in vivo; conditions: 15 larvae, 14 days, 28°C, 65 % r.h.
Description: as §4, §5, §6, §8

[6] = test system: Larven des Teppichkäfers (Anthrenus flavipes var. seminiveus); experiment: Fastness test against carpet beetle larvae (SNV 195901) on wool treated by pad (Foulard) application, Example 5; format: in vivo; conditions: 15 larvae, 14 days, 28°C, 65 % r.h.
Description: as §4, §5, §6, §8

[7] = test system: die in Beispiel 4 genannten keratinfressenden Schädlinge; experiment: Protection of wool articles treated in a dry-cleaning liquor, Example 6; format: in vivo, Tineola bisselliella, Attagenus piceus, Anthrenus flavipes; conditions: 10%-ige solution diluted 1:200 by volume in dry-cleaning solvent; wool spun to ca. 100 % solvent content, dried
Description: Beispiel 6: Es wird jeweils eine 10%-ige Lösung der Verbindungen Nr. 101, 201, 202 und 301 in Aethylenglykolmonomethyläther hergestellt. Ein Volumenteil dieser Lösung wird mit 200 Volumen- 'teilen eines zur Trockenreinigung geeigneten Lösungsmittels, z.B. einer passenden Benzinfraktion oder Perchloräthylen, verdünnt. Gewünschtenfalls können noch reinigungsfördernde Zusätze beigefügt werden. Wollartikel werden nun wie üblich in diesen Reinigungsflüssigkeiten behandelt und anschliessend auf einen Lösungsmittelgehalt von ca. 100 % des Wollgewichtes abgeschleudert.

[8] = test system: die in Beispiel 4 genannten keratinfressenden Schädlinge; experiment: Protection of wool articles treated by spray application, Example 7; format: in vivo, Tineola bisselliella, Attagenus piceus, Anthrenus flavipes; conditions: 0,5%-ige solution sprayed, 2 x 15 g/m^2; about 400 ppm active on the material
Description: Beispiel 7: Es wird jeweils eine 0,5%-ige Lösung der Verbindungen Nr. 101, 201, 202 und 301 in Methylenchlorid, Trichloräthylen oder einer tiefsiedenden Benzinfraktion angesetzt. Wollartikel werden mit Hilfe einer üblichen Sprüheinrichtung mit diesen Lösungen besprüht, so dass 2 x 15 g/m^2 an Wirkstofflösung appliziert werden. Bei einem Ausnützungseffekt des Aerosols von 30 % befinden sich dann etwa 400 ppm der jeweiligen Wirkstoffverbindung auf dem Material.

[9] = Einsatzkonzentration 30 ppm on wool weight
[10] = Einsatzkonzentration 300 ppm on wool weight
[11] = Einsatzkonzentration 30 ppm on wool
[12] = Einsatzkonzentration 250 ppm on wool
[13] = Einsatzkonzentration 7,5 ppm on wool weight
[14] = Einsatzkonzentration 125 ppm on wool weight
[15] = Einsatzkonzentration 7,5 ppm on wool
[16] = Einsatzkonzentration 15 ppm on wool
[17] = Einsatzkonzentration 125 ppm on wool

| SMILES | Gewichtsverlust [1, 9] | Gewichtsverlust [2, 9] | Gewichtsverlust [3, 10] | Gewichtsverlust [4, 11] | Gewichtsverlust [5, 11] | Gewichtsverlust [6, 12] | Schutz gegen keratinfressende Schädlinge [7] | Schutz gegen keratinfressende Schädlinge [8] | Gewichtsverlust [1, 13] | Gewichtsverlust [3, 14] | Gewichtsverlust [4, 15] | Gewichtsverlust [5, 16] | Gewichtsverlust [6, 17] | Gewichtsverlust [2, 13] | Gewichtsverlust [5, 15] |
| --- | --- | --- | --- | --- | --- | --- | --- | --- | --- | --- | --- | --- | --- | --- | --- |
| CC#CC(OC(=O)C1C(C=C(Cl)Cl)C1(C)C)c1cccc(Oc2ccccc2)c1 (mixture of isomers) [Verbindung 101, (±)-cis-2,2-Dimethyl-3-(2,2-dichlorvinyl)-cyclopropancarbonsäure-3-phenoxy-α-propin-1-yl-benzylester] | 1,2 mg | 9,0 mg | 9,2 mg | 1,0 mg | 2,0 mg | 1,1 mg | hervorragend gegen die in Beispiel 4 genannten keratinfressenden Schädlinge geschützt | gegen die in Beispiel 4 genannten keratinfressenden Schädlinge geschützt |  |  |  |  |  |  |  |
| CC1(C)C(C=C(Cl)Cl)C1C(=O)OC(C#N)c1cccc(Oc2ccccc2)c1 (mixture of isomers) [Verbindung 202, (±)-cis-2,2-Dimethyl-3-(2,2-dichlorvinyl)-cyclopropancarbonsäure-3-phenoxy-a-cyano-benzylester] |  |  |  |  |  |  | hervorragend gegen die in Beispiel 4 genannten keratinfressenden Schädlinge geschützt | gegen die in Beispiel 4 genannten keratinfressenden Schädlinge geschützt |  |  |  |  |  |  |  |
| CC1(C)C(C=C(Cl)Cl)C1C(=O)OCc1cccc(Oc2ccccc2)c1 (mixture of isomers) [Verbindung 205, (+)-cis, trans-2,2-Dimethyl-3-(2,2-dichlorvinyl)-cyclopropancarbonsäure-3-phenoxybenzylester] |  | 14,9 mg |  |  |  |  |  |  | 5,8 mg | 29,2 mg | 5,5 mg | 32,5 mg | 11,0 mg |  |  |
| CC1(C)C(C=C(Cl)Cl)C1C(=O)OC(C#N)c1ccc(F)c(Oc2ccccc2)c1 (mixture of isomers) [Verbindung 301, (±)-cis-2,2-Dimethyl-3-(2,2-dichlorvinyl)-cyclopropancarbonsäure-3-phenoxy-4-fluor-a-cyanobenzylester] |  |  |  |  |  |  | hervorragend gegen die in Beispiel 4 genannten keratinfressenden Schädlinge geschützt | gegen die in Beispiel 4 genannten keratinfressenden Schädlinge geschützt | 0 mg | 14,9 mg |  |  | 0,1 mg | 11,4 mg | 0,8 mg |
| CC1(C)C(C=C(Cl)Cl)C1C(=O)OCc1cccc(Oc2ccccc2)c1 (racemic) [Verbindung 201, (+)-cis-2,2-Dimethyl-3-(2,2-dichlorvinyl)-cyclopropancarbonsäure-3-phenoxybenzylester] |  | 4,3 mg |  |  |  |  | hervorragend gegen die in Beispiel 4 genannten keratinfressenden Schädlinge geschützt | gegen die in Beispiel 4 genannten keratinfressenden Schädlinge geschützt | 1,7 mg | 18,9 mg | 1,9 mg | 3,7 mg | 1,2 mg |  |  |
| CC#CC(OC(=O)[C@H]1[C@H](C=C(Cl)Cl)C1(C)C)c1cccc(Oc2ccccc2)c1 (relative stereo) [Verbindung 102, (+)-trans-2,2-Dimethyl-3-(2,2-dichlorvinyl)-cyclopropancarbonsäure-3-phenoxy-a-propin-l-yl-benzylester] | 2,6 mg | 43,4 mg | 51,7 mg | 4,4 mg | 15,3 mg | 27,1 mg |  |  |  |  |  |  |  |  |  |
| CC1(C)[C@@H](C=C(Cl)Cl)[C@@H]1C(=O)OCc1cccc(Oc2ccccc2)c1 (relative stereo) [Verbindung 203, (+)-trans-2,2-Dimethyl-3-(2,2-dichlorvinyl)-cyclopropancarbonsäure-3-phenoxybenzylester] |  | 54,2 mg |  |  |  |  |  |  | 26,9 mg | 68,3 mg | 17,4 mg | 39,3 mg | 28,1 mg |  |  |
| CC1(C)[C@@H](C=C(Cl)Cl)[C@@H]1C(=O)OC(C#N)c1ccc(F)c(Oc2ccccc2)c1 (relative stereo) [Verbindung 302, (+)-trans-2,2-Dimethyl-3-(2,2-dichlorvinyl)-cyclopropancarbonsäure-3-phenoxy-4-fluor-a-cyanobenzylester] |  |  |  |  |  |  |  |  | 0,4 mg | 48,0 mg |  |  | 16,3 mg | 51,4 mg | 9,3 mg |
